What was measured:
[1] = target: T1, MTHFD2 recombinant human enzyme (Homo sapiens, UniProt P13995); assay: MTHFD2 inhibition assay (NAD(P)H-Glo luminescence); settings: for MTHFD1/MTHFD2 IC50 ratio: selectivity of MTHFD2 inhibition over MTHFD1, band
T1 sequence (P13995 36-350): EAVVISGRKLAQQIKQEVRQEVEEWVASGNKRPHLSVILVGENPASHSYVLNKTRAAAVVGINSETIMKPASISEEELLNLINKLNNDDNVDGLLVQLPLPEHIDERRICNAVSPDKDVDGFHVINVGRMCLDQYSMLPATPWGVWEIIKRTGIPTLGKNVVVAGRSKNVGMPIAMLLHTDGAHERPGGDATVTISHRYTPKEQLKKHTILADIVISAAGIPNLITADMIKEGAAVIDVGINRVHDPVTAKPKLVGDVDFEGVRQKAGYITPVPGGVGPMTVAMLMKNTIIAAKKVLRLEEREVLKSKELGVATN

[2] = target: T2, MTHFD1 recombinant human enzyme (Homo sapiens, UniProt P11586); assay: MTHFD1 inhibition assay (NAD(P)H-Glo luminescence); settings: MTHFD1 IC50, recombinant human enzyme 200 nM, NADP, band
T2 sequence (P11586 2-291 limits assumed): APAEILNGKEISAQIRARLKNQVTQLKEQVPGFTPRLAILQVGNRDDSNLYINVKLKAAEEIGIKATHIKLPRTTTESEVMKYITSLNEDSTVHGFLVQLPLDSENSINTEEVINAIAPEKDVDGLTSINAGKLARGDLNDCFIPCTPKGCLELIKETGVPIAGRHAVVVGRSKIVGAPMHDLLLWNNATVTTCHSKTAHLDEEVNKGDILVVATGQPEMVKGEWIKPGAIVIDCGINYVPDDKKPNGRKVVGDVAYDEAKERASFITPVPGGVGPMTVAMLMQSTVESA

human CD4+ T cells = assay: Human CD4+ T-cell proliferation assay (CFSE, CD3/28 beads); settings: read-out: Proliferation IC50
Procedure: Cells were incubated at room temperature for 8 minutes in a rotator in the dark. 13 mL cRPMI was added to each tube and cells were centrifuged at 500×g for 4 minutes at room temperature before pellets were resuspended in 10 mL cRPMI. Cells were counted using the Auto2000 Cellometer and AO/PI viability stain and concentration adjusted to 0.6×10^6 cells/mL in cRPMI. […] Control wells were included for flow cytometry and edge wells were filled with 200 μL 1×dPBS. Cells were incubated at 37° C., 5% CO2 for 2 days before compound treatment. […] Cells were incubated at 37° C., 5% CO2 for a further 2 days prior to flow staining and supernatant harvest.
On the final day plates were centrifuged at 500×g for 4 minutes at room temperature. 125 μL of supernatants were transferred to a V bottom 96 well polystyrene plate and stored at −80° C. Plates were gently vortexed to disrupt the cell pellets before 125 μL 1×PBS was added to each well. Plates were centrifuged at 500×g for 4 minutes at room temperature and supernatants removed from the plates by aspirating. Plates were gently vortexed and 30 μL of live/dead stain (Invitrogen, L34975) in 1×dPBS was added and incubated for 15 minutes in the dark at 4° C. […] 100 μL of flow cytometry buffer was added and plates were centrifuged at 500×g for 4 minutes before supernatants were aspirated from the plates. Wells were resuspended in 200 μL flow cytometry buffer and plates stored at 4° C. before being run on the flow cytometer.
Data was analysed using FlowJo and the compensation matrix applied to all samples. The gates were set using unstained and unstimulated samples.

| IC50 [1] [nM] | MTHFD1/MTHFD2 IC50 ratio [1] | IC50 [2] [nM] | Structure (SMILES) | IC50 (human CD4+ T cells) [nM] |
| --- | --- | --- | --- | --- |
| 1 to 10 | J (>30) | 100 to 1000 | [2H]C([2H])([2H])Oc1cc(C(=O)N2CCc3c(c(=O)oc4c(C)c(N5CCN(C)[C@@H](COC)C5)cc(Cl)c34)C2)c(F)cc1C(=O)NS(=O)(=O)N1CC2CC2C1 (stereo partly drawn) [Example 327, N-((3-azabicyclo[3.1.0]hexan-3-yl)sulfonyl)-4-(10-chloro-8-((R)-3-(methoxymethyl)-4-methylpiperazin-1-yl)-7-methyl-5-oxo-1,3,4,5-tetrahydro-2H-chromeno[3,4-c]pyridine-3-carbonyl)-5-fluoro-2-(methoxy-d3)benzamide] | 100 to 1000 |
| 1 to 10 | J (>30) | 100 to 1000 | COC[C@H]1CN(c2cc(C)c3c4c(c(=O)oc3c2C)CN(C(=O)c2cc(N(C)C)c(C(=O)NS(=O)(=O)N(C)C3CC3)cc2F)CC4)CCN1C [Example 257, (R)-N-(N-cyclopropyl-N-methylsulfamoyl)-2-(dimethylamino)-5-fluoro-4-(8-(3-(methoxymethyl)-4-methylpiperazin-1-yl)-7,10-dimethyl-5-oxo-1,3,4,5-tetrahydro-2H-chromeno[3,4-c]pyridine-3-carbonyl)benzamide] | 1 to 10 |
| 1 to 10 | J (>30) | 10 to 100 | COC[C@H]1CN(c2cc(C)c3c4c(c(=O)oc3c2C)CN(C(=O)c2cc(OC3CC3)c(C(=O)NS(=O)(=O)N3CCCC3)cc2F)CC4)CCN1C [Example 263, (R)-2-cyclopropoxy-5-fluoro-4-(8-(3-(methoxymethyl)-4-methylpiperazin-1-yl)-7,10-dimethyl-5-oxo-1,3,4,5-tetrahydro-2H-chromeno[3,4-c]pyridine-3-carbonyl)-N-(pyrrolidin-1-ylsulfonyl)benzamide] | 10 to 30 |
| 10 to 100 | G (^ 3 to 9.0) | 100 to 1000 | CCOc1cc(C(=O)N2CCc3c(c(=O)oc4c(C)c(N5CCN(C)[C@@H](COC)C5)cc(C)c34)C2)c(F)cc1C(=O)NS(=O)(=O)N(C1CC1)C1CC1 [Example 216, (R)-N-(N,N-dicyclopropylsulfamoyl)-2-ethoxy-5-fluoro-4-(8-(3-(methoxymethyl)-4-methylpiperazin-1-yl)-7,10-dimethyl-5-oxo-1,3,4,5-tetrahydro-2H-chromeno[3,4-c]pyridine-3-carbonyl)benzamide] | 10 to 30 |
| 1 to 10 | J (>30) | 1000 to 5000 | COC[C@H]1CN(c2cc(C)c3c4c(c(=O)oc3c2C)CN(C(=O)c2cc(N(C)C)c(C(=O)NS(=O)(=O)N3CCC[C@@H]3COC)cc2F)CC4)CCN1C [Example 311, 2-(dimethylamino)-5-fluoro-4-(8-((R)-3-(methoxymethyl)-4-methylpiperazin-1-yl)-7,10-dimethyl-5-oxo-1,3,4,5-tetrahydro-2H-chromeno[3,4-c]pyridine-3-carbonyl)-N-(((R)-2-(methoxymethyl)pyrrolidin-1-yl)sulfonyl)benzamide] | 1 to 10 |
| 10 to 100 | H (>9.0 to 30) | 100 to 1000 | COC[C@H]1CN(c2ccc3c4c(c(=O)oc3c2C)CN(C(=O)c2cc(N(C)C)c(C(=O)NS(=O)(=O)N3CC5CC5C3)cc2F)CC4)CCN1C (stereo partly drawn) [Example 181, N-((3-azabicyclo[3.1.0]hexan-3-yl)sulfonyl)-2-(dimethylamino)-5-fluoro-4-(8-((R)-3-(methoxymethyl)-4-methylpiperazin-1-yl)-7-methyl-5-oxo-1,3,4,5-tetrahydro-2H-chromeno[3,4-c]pyridine-3-carbonyl)benzamide] | 10 to 30 |
| 1 to 10 | J (>30) | 100 to 1000 | COC[C@H]1CN(c2cc(C)c3c4c(c(=O)oc3c2C)CN(C(=O)c2cc(N(C)C)c(C(=O)NS(=O)(=O)N3CC5(CCC5)C3)cc2F)CC4)CCN1C [Example 253, (R)-N-((2-azaspiro[3.3]heptan-2-yl)sulfonyl)-2-(dimethylamino)-5-fluoro-4-(8-(3-(methoxymethyl)-4-methylpiperazin-1-yl)-7,10-dimethyl-5-oxo-1,3,4,5-tetrahydro-2H-chromeno[3,4-c]pyridine-3-carbonyl)benzamide] | 10 to 30 |
| 10 to 100 | J (>30) | 1000 to 5000 | [2H]C([2H])([2H])Oc1cc(C(=O)N2CCc3c(c(=O)oc4c(C)c(N5CCN(C)[C@@H](COC)C5)cc(C)c34)C2)c(Cl)cc1C(=O)NS(=O)(=O)N1CCCC1 [Example 328, (R)-5-chloro-2-(methoxy-d3)-4-(8-(3-(methoxymethyl)-4-methylpiperazin-1-yl)-7,10-dimethyl-5-oxo-1,3,4,5-tetrahydro-2H-chromeno[3,4-c]pyridine-3-carbonyl)-N-(pyrrolidin-1-ylsulfonyl)benzamide] | 100 to 1000 |
| 1 to 10 | F (<3) | 1 to 10 | CCOc1c(C(=O)N2CCc3c(c(=O)oc4c(C)c(N5CCN(C)[C@@H](COC)C5)cc(C)c34)C2)ccc(C(=O)NS(=O)(=O)N2CCCC2)c1F [Example 223, (R)-3-ethoxy-2-fluoro-4-(8-(3-(methoxymethyl)-4-methylpiperazin-1-yl)-7,10-dimethyl-5-oxo-1,3,4,5-tetrahydro-2H-chromeno[3,4-c]pyridine-3-carbonyl)-N-(pyrrolidin-1-ylsulfonyl)benzamide] | 1 to 10 |
| 10 to 100 | F (<3) | 10 to 100 | COC[C@H]1CN(c2ccc3c4c(c(=O)oc3c2C)CN(C(=O)c2ccc(C(=O)NS(=O)(=O)C3(C)CC3)c(N3CCCC3)c2)CC4)CCN1C [Example 15, (R)-4-(8-(3-(methoxymethyl)-4-methylpiperazin-1-yl)-7-methyl-5-oxo-1,3,4,5-tetrahydro-2H-chromeno[3,4-c]pyridine-3-carbonyl)-N-((1-methylcyclopropyl)sulfonyl)-2-(pyrrolidin-1-yl)benzamide] | 1 to 10 |
| 1 to 10 |  | 100 to 1000 | COC[C@H]1CN(c2cc(Cl)c3c4c(c(=O)oc3c2C)CN(C(=O)c2cc(N(C)C)c(C(=O)NS(=O)(=O)N3CCCC3)cc2F)CC4)CCN1C [Example 247, (R)-4-(10-chloro-8-(3-(methoxymethyl)-4-methylpiperazin-1-yl)-7-methyl-5-oxo-1,3,4,5-tetrahydro-2H-chromeno[3,4-c]pyridine-3-carbonyl)-2-(dimethylamino)-5-fluoro-N-(pyrrolidin-1-ylsulfonyl)benzamide] | 10 to 30 |
| 1 to 10 | J (>30) | 100 to 1000 | [2H]C([2H])([2H])Oc1cc(C(=O)N2CCc3c(c(=O)oc4c(C)c(N5CCN(C)[C@@H](COC)C5)cc(C)c34)C2)c(F)cc1C(=O)NS(=O)(=O)N1CC2CC2C1 (stereo partly drawn) [Example 251, N-((3-azabicyclo[3.1.0]hexan-3-yl)sulfonyl)-5-fluoro-2-(methoxy-d3)-4-(8-((R)-3-(methoxymethyl)-4-methylpiperazin-1-yl)-7,10-dimethyl-5-oxo-1,3,4,5-tetrahydro-2H-chromeno[3,4-c]pyridine-3-carbonyl)benzamide] | 30 to 100 |
| 1 to 10 | J (>30) | 100 to 1000 | CCOc1cc(C(=O)N2CCc3c(c(=O)oc4c(C)c(N5CCN(C)[C@@H](COC)C5)cc(C)c34)C2)c(F)cc1C(=O)NS(=O)(=O)N1C[C@@H]2C[C@H]1CO2 [Example 267, N-(((1S,4S)-2-oxa-5-azabicyclo[2.2.1]heptan-5-yl)sulfonyl)-2-ethoxy-5-fluoro-4-(8-((R)-3-(methoxymethyl)-4-methylpiperazin-1-yl)-7,10-dimethyl-5-oxo-1,3,4,5-tetrahydro-2H-chromeno[3,4-c]pyridine-3-carbonyl)benzamide] | 100 to 1000 |

| Structure (SMILES) | IC50 [1] [nM] | MTHFD1/MTHFD2 IC50 ratio [1] | IC50 [2] [nM] | IC50 (human CD4+ T cells) [nM] |
| --- | --- | --- | --- | --- |
| COC[C@H]1CN(c2cc(C)c3c4c(c(=O)oc3c2C)CN(C(=O)c2cc(OC3CCC3)c(C(=O)NS(=O)(=O)C3(C)CC3)c(C(F)(F)F)c2)CC4)CCN1C [Example 130, (R)-2-cyclobutoxy-4-(8-(3-(methoxymethyl)-4-methylpiperazin-1-yl)-7,10-dimethyl-5-oxo-1,3,4,5-tetrahydro-2H-chromeno[3,4-c]pyridine-3-carbonyl)-N-((1-methylcyclopropyl)sulfonyl)-6-(trifluoromethyl)benzamide] | 10 to 100 | J (>30) | 1000 to 5000 | 1000 to 5000 |
| COC[C@H]1CN(c2cc(Cl)c3c4c(c(=O)oc3c2C)CN(C(=O)c2ccc(C(=O)NS(=O)(=O)N3C5CCC3CC5)c(OC)c2)CC4)CCN1C [Example 321, (R)-N-((7-azabicyclo[2.2.1]heptan-7-yl)sulfonyl)-4-(10-chloro-8-(3-(methoxymethyl)-4-methylpiperazin-1-yl)-7-methyl-5-oxo-1,3,4,5-tetrahydro-2H-chromeno[3,4-c]pyridine-3-carbonyl)-2-methoxybenzamide] | 10 to 100 | J (>30) | 1000 to 5000 | 30 to 100 |

From patent US12662489B2 (Sitryx Therapeutics Limited, priority 2023, dated 2026)
